Numbers after ± are expanded uncertainties.
Details: Liquid, Closed cell (Static) method

Which “vapor or sublimation pressure” value (317 K) does the source give for `CCO` [ethanol] here?
The value was 21.9 ± 0.4 kPa.

What about the “vapor or sublimation pressure” value (325.12 K) of the same molecule?
Its value is 32.5 ± 0.4 kPa.

What about the “vapor or sublimation pressure” value (330.28 K) of the same molecule?
The value was 41.3 ± 0.4 kPa.

What about the “vapor or sublimation pressure” value (335.45 K) of the same molecule?
The value was 52 ± 0.4 kPa.

And the “vapor or sublimation pressure” value (339.58 K)?
The value was 62.3 ± 0.4 kPa.

And the “vapor or sublimation pressure” value (342.32 K)?
Its value is 70 ± 0.5 kPa.

And the “vapor or sublimation pressure” value (345.79 K)?
The value was 80.9 ± 0.5 kPa.

What about the “vapor or sublimation pressure” value (348.45 K) of the same molecule?
Its value is 90.2 ± 0.5 kPa.

What about the “vapor or sublimation pressure” value (351.31 K) of the same molecule?
The value was 101.4 ± 0.5 kPa.

For `CCCO` [propan-1-ol], which “vapor or sublimation pressure” value (334.53 K) is on record?
Its value is 21.9 ± 0.4 kPa.

What about the “vapor or sublimation pressure” value (342.07 K) of the same molecule?
Its value is 31.2 ± 0.4 kPa.

What about the “vapor or sublimation pressure” value (349.12 K) of the same molecule?
The value was 42.9 ± 0.4 kPa.

And the “vapor or sublimation pressure” value (353.96 K)?
The value was 52.7 ± 0.4 kPa.

What about the “vapor or sublimation pressure” value (357.95 K) of the same molecule?
Its value is 62.4 ± 0.4 kPa.

What about the “vapor or sublimation pressure” value (361.25 K) of the same molecule?
Its value is 71.4 ± 0.5 kPa.

What about the “vapor or sublimation pressure” value (364.3 K) of the same molecule?
Its value is 80.7 ± 0.5 kPa.

What about the “vapor or sublimation pressure” value (367.51 K) of the same molecule?
The value was 91.6 ± 0.5 kPa.

And the “vapor or sublimation pressure” value (370.44 K)?
The value was 102.7 ± 0.5 kPa.

Which “vapor or sublimation pressure” value (331.7 K) does the source give for `CCCOC(C)=O` [propyl ethanoate] here?
The value was 22.2 ± 0.4 kPa.

What about the “vapor or sublimation pressure” value (340.16 K) of the same molecule?
Its value is 31.1 ± 0.4 kPa.

What about the “vapor or sublimation pressure” value (348.06 K) of the same molecule?
The value was 41.8 ± 0.4 kPa.

What about the “vapor or sublimation pressure” value (353.27 K) of the same molecule?
The value was 50.4 ± 0.4 kPa.

What about the “vapor or sublimation pressure” value (359.55 K) of the same molecule?
The value was 62.7 ± 0.4 kPa.

What about the “vapor or sublimation pressure” value (363.29 K) of the same molecule?
The value was 71 ± 0.4 kPa.

And the “vapor or sublimation pressure” value (367.42 K)?
Its value is 81.4 ± 0.5 kPa.

What about the “vapor or sublimation pressure” value (371.07 K) of the same molecule?
Its value is 91.5 ± 0.5 kPa.

And the “vapor or sublimation pressure” value (374.29 K)?
The value was 101.4 ± 0.5 kPa.

From the NIST ThermoML archive (doi:10.1016/j.fluid.2010.11.026)
